We go through four compounds from US20140275049A1, “SUBSTITUTED PYRAZOLE ANALOGS As RAR ANTAGONISTS” (Eli Lilly and Company, priority 2011, published 2014).

Assay [1] deals with T1, Gal4 (DBD) RARγ (LBD) hybrid receptor (Homo sapiens, UniProt P13631).
T1 construct: Gal4 (DBD) RARγ (LBD), or the Gal4 (DBD) RARβ (LBD) hybrid receptor; expressed in transfected cells; host or cells: HEK 293
T1 sequence (P13631 185-419 limits assumed): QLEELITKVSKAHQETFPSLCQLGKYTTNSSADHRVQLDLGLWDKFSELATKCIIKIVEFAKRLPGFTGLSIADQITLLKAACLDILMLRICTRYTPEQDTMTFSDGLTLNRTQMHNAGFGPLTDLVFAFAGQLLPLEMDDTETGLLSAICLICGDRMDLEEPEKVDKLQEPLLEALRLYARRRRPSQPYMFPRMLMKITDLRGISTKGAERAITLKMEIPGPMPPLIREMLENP
Put plainly: Gal4 reporter assay to determine RAR receptor antagonist activity. It counts as cell-based. The settings on record: HEK 293 cells, antagonist mode against EC80 ATRA, 24 hours, luciferase. The text has this:
For cell-based assays, human embryonic kidney HEK 293 cells are transfected with receptor and reporter gene plasmids using Fugene. The reporter plasmid containing five Gal4 binding sites and a major late promoter of adenovirus upstream of the luciferase reporter cDNA is transfected together with a plasmid constitutively expressing the Gal4 DNA binding domain (DBD) and the RARα ligand binding domain (LBD), Gal4 (DBD) RARγ (LBD), or the Gal4 (DBD) RARβ (LBD) hybrid receptor using a SV40 promoter. Cells are transfected in poly-d-lysine coated T175 cm flasks in DMEM media with 5% charcoal-stripped Fetal Bovine Serum (FBS). After an overnight incubation, transfected cells are trypsinized, plated in opaque 96 well dishes in DMEM media containing 5% charcoal-stripped FBS, incubated for 4 h, and then exposed to 0.17 nM to 10 μM of test compound in half log dilutions. To determine the antagonist activity of the test compound, EC80 concentrations of agonist for each receptor is also added to the media (15 nM all-trans retinoic acid, ATRA, for RARα and RARγ, 10 nM of ATRA for RARβ). After 24 hours of incubation with compounds, cells are lysed and luciferase activity is determined. Data are fitted to a four parameter-fit logistics to determine IC50 values. The maximum % inhibition is determined versus the cellular response to 0.25% DMSO in the absence of ATRA.

The target in the next assay is T2, human RARγ LBD (Homo sapiens, UniProt P13631).
T2 sequence (P13631 185-419 limits assumed): T1 sequence (P13631 185-419 limits assumed)
T2 sequence (P19793 227-458 partner limits assumed): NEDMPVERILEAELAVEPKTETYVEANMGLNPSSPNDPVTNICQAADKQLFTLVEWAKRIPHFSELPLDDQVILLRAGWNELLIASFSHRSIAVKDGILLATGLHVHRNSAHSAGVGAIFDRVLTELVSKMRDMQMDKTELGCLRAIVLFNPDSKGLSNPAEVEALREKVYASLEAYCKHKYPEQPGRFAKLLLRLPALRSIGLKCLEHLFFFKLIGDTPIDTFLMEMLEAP
Put plainly: RARγ SRC-2 coactivator recruitment assay (agonist mode). The format is biochemical. The settings on record: maximum stimulation relative to fitted top of TTNPB standard curve. From the text: The RARγ SRC-2 Coactivator recruitment assay utilizes the ligand binding domain (LBD) of RARγ with its binding partner RXRα to determine the ability of a compound to enhance the recruitment of the co-activator SRC-2 to the receptor complex. Enhanced recruitment of SRC2 is known to be reflective of an agonist confirmation of the RARγ receptor. The RARγ LBD and SRC2 peptides are covalently linked to AlphaScreen® beads such that enhanced protein-protein interactions can be assessed by energy transfer. Coactivator recruitment assays are performed using AlphaScreen® technology (Perkin Elmer USA) using a 6X-Histidine tagged human RARγ LBD and GST tagged hSRC-2 protein. Unlabelled RXRα LBD is added as a silent heterodimer partner. Nickel chelated donor beads are used to bind RARγ LBD and anti-GST acceptor beads are used to bind SRC-2. Serially diluted test compound is added in concentrations ranging from 10 μM to 500 pM to 20 nM human RARγ receptor, 25 nM RXRα LBD, and 5 nM SRC-2 protein in a buffer containing 25 mM HEPES (pH 7.5), 100 mM NaCl, 0.1% Bovine Serum Albumin (fraction V), and 2 mM DTT containing 16.67 μg/ml of nickel chelated donor beads and 16.67 μg/ml of anti GST acceptor beads in a final volume of 15 μl per well in a white 384 shallow well proxiplate. The RAR agonist, TTNPB, is used as a standard on each plate and is added in concentrations ranging from 100 nM to 5 pM. After incubating for 12 hours at room temperature, read the plate on a Perkin Elmer Envision using standard AlphaScreen® parameters for excitation and fluorescence. Use the data to calculate an EC50 for compounds after fitting the dose-response curves to a 4-parameter logistic fit. Calculate the percent stimulation using the fitted top of the TTNPB standard curve as a comparator.

In assay [1], `CC(C)Sc1cc(-c2cc(-c3ccc(C(=O)O)cc3)nn2-c2ccc(C(=O)N(C)C)cc2)cc(C(C)(C)C)c1` [Example 12, 4-[5-(3-tert-Butyl-5-isopropylsulfanyl-phenyl)-1-[4-(dimethylcarbamoyl)phenyl]pyrazol-3-yl]benzoic Acid] registered a Kb of 30.2 nM. Further, the “% Stimulation” value at human RARγ LBD was 8.4%.

Compound `CC(C)(C)c1cc(-c2cc(-c3ccc(C(=O)O)cc3)nn2-c2ccc(C(=O)N3CCOCC3)cc2)cc(C(C)(C)C)n1` [Example 8, 4-[5-(2,6-Di-tert-butyl-4-pyridyl)-1-[4-(morpholine-4-carbonyl)phenyl]pyrazol-3-yl]benzoic acid] registered a Kb in assay [1] of 28.7 nM. On human RARγ LBD, the “% Stimulation” value is 0.6%.

In the case of `CC(C)(C)c1cc(-c2cc(-c3ccc(C(=O)O)cc3)nn2-c2ccc(S(C)(=O)=O)cc2)cc(C(C)(C)C)c1` [Example 19, 4-[5-(3,5-Di-tert-butylphenyl)-1-(4-methylsulfonylphenyl)pyrazol-3-yl]benzoic Acid], the antagonist equilibrium constant (Kb) in assay [1] amounted to 34.6 nM. In addition, the “% Stimulation” value at human RARγ LBD is on record as −3%.

For `CN1CCN(C(=O)c2ccc(-n3nc(-c4ccc(C(=O)O)cc4)cc3-c3cc(C(C)(C)C)cc(C(C)(C)C)c3)cc2)CC1` [Example 1, 4-[5-(3,5-Di-tert-butylphenyl)-1-[4-(4-methylpiperazine-1-carbonyl)phenyl]pyrazol-3-yl]benzoic Acid], in assay [1], the Kb came out at 23 ± 5.36 nM. Moreover, the “% Stimulation” value at human RARγ LBD is 0.2%.
